Experimental data from US8933113B2 (Merck Sharp & Dohme Corp., priority 2011, dated 2015).

Target: T1, full-length human Mineralocorticoid Receptor (MR) (Homo sapiens, UniProt P08235)
T1 construct: host or cells: PathHunter CHO-K1 cells
T1 sequence (P08235 1-984): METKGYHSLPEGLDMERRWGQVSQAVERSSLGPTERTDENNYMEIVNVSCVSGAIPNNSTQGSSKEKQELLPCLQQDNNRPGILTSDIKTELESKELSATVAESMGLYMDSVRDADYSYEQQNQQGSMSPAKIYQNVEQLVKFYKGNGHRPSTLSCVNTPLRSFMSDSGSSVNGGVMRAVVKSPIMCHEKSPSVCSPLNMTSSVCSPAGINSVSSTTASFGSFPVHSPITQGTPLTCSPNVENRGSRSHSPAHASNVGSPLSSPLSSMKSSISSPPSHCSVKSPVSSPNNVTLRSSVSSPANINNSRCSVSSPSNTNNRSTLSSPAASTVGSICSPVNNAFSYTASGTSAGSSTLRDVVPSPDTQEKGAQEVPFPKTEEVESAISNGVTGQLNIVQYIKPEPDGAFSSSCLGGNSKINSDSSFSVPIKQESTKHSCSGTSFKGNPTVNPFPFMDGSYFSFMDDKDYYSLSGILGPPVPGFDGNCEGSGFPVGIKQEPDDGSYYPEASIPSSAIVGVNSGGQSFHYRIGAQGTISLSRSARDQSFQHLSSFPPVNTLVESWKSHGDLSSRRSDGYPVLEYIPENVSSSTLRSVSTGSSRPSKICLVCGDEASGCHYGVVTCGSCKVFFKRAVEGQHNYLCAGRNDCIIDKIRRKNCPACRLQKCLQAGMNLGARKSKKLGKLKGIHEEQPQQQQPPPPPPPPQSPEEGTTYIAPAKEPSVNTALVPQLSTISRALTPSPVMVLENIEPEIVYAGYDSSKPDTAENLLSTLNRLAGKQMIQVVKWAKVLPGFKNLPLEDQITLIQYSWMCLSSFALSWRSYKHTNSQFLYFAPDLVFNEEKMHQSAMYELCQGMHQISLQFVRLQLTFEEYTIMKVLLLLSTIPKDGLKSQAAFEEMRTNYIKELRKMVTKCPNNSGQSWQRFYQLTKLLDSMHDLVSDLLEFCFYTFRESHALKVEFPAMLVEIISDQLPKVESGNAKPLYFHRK
Test: human MR NH Pro assay (PathHunter Protein:Protein interaction assay), MR antagonist activity
Assay type: cell-based
Settings: PathHunter CHO-K1 cells overexpressing human MR; aldosterone about 0.3 nM; 6 hours at 37° C.; luminescence; read-out: Primary Assay IP rating (IP = inflection point for a given dose-response titration curve)
Outline: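 PathHunter enzyme-complementation assay in cells of full-length human MR recruitment of a coactivator peptide, run in antagonist mode against aldosterone at about 0.3 to 1.0 nM final. Compounds are in a 10-point, 1:3 series from a 4.4 mM top. Incubation is 6 h at 37° C, then detection reagent for 1 h at RT, with a luminescence read-out.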

Row | SMILES | IC50 [nM]
1 | CC[C@](C(=O)NC1CC1)(c1ccc(Cl)cc1)n1ccc2c(NS(C)(=O)=O)cccc21 [Compound 41, (R)-2-(4-chlorophenyl)-N-cyclopropyl-2-{4-[(methylsulfonyl)amino]-1H-indol-1-yl}butanamide] | 100 to 500
2 | COC(=O)C(c1cccc(Br)c1)n1ccc2c([N+](=O)[O-])cccc21 (centres unmarked) [Compound 4, methyl (3-bromophenyl)(4-nitro-1H-indol-1-yl)acetate] | 500 to 5000
